Test results taken from patent US20120220594A1, “METHODS FOR TREATING CANCER IN PATIENTS HAVING IGF-1R INHIBITOR RESISTANCE” (Bristol-Meyers Squibb Company, priority 2009, published 2012).
Like-named read-outs stand apart in the source and are kept apart here.

How the values were obtained:
Rh41 cells = assay: 3H-thymidine incorporation cell proliferation assay in parental Rh41 cells; type: cell-based, human
From the text: (§1) Human rhabdomyosarcoma cell line Rh41 was provided by Dr. Lee Helman and grown in RPMI medium plus GLUTAMAX® supplemented with 10% fetal bovine serum (FBS), 10 mmol/L HEPES, penicillin, and streptomycin.

Rh41-807R cells = assay: 3H-thymidine incorporation cell proliferation assay in BMS-754807-resistant Rh41-807R cells; type: cell-based, human
From the text: as §1

Rh41-MAB391R cells = assay: 3H-thymidine incorporation cell proliferation assay in MAB391-resistant Rh41-MAB391R cells; type: cell-based, human; conditions: Rh41-MAB391R cells, 72 h, 3H-thymidine incorporation; Table 1; read-out: IC50 (nM) Rh41-MAB391R
From the text: Human rhabdomyosarcoma cell line Rh41 was provided by Dr. Lee Helman and grown in RPMI medium plus GLUTAMAX® supplemented with 10% fetal bovine serum (FBS), 10 mmol/L HEPES, penicillin, and streptomycin. To develop acquired resistant cells to either BMS-754807, or mAB391 (R&D Systems, Inc., Minneapolis, Minn.), the sensitive Rh41 cells were exposed to the corresponding drug at the IC50 concentration and then at gradually increasing concentrations every other culture passage. The IC50 value to the compound was measured periodically during this treatment time until the resistance level reached a plateau.
Human rhabdomyosarcoma cell line Rh41 was chosen in this study to develop acquired resistance because it expresses IGF-1R (Huang et al., Cancer Res., 69(1):161-170 (Jan. 1, 2009)), the target of BMS-754807 and MAB391; and is sensitive to both drugs (Carboni et al., Proceedings of the 100th Annual Meeting of the American Association for Cancer Research, 2009 Apr. 18-22; Denver, Colo., Abstract No. 1742). The acquired-resistant Rh41-807R and Rh41-MAB391R cell lines were developed using a stepwise exposure to increasing concentrations of either IGF-1R/IR inhibitor BMS-754807 or IGF-1R antibody MAB391 for extended periods of time until a resistance plateau was reach. […];

[1] = molecular target: type I-IGF receptor (IGF-1R), as expressed by human rhabdomyosarcoma Rh41 cells and the derived resistant lines (human) (UniProt P08069); assay: cell-based or functional assay
[2] = Homo sapiens, Rh41 cells, PDGFR inhibitors, Table 7, read-out: Rh41 IC50
[3] = Homo sapiens, Rh41-807R cells, PDGFR inhibitors, Table 7, read-out: Rh41-807R IC50
[4] = Homo sapiens, Rh41 cells, cytotoxic agents and mTOR inhibitor, Table 2, read-out: Rh41 IC50
[5] = Homo sapiens, Rh41-807R cells, cytotoxic agents and mTOR inhibitor, Table 2, read-out: Rh41-807R IC50
[6] = cytotoxic agents and mTOR inhibitor

type I-IGF receptor (IGF-1R), as expressed by human rhabdomyosarcoma Rh41 cells and the derived resistant lines (human), sequence (P08069 31-1367, change not shown): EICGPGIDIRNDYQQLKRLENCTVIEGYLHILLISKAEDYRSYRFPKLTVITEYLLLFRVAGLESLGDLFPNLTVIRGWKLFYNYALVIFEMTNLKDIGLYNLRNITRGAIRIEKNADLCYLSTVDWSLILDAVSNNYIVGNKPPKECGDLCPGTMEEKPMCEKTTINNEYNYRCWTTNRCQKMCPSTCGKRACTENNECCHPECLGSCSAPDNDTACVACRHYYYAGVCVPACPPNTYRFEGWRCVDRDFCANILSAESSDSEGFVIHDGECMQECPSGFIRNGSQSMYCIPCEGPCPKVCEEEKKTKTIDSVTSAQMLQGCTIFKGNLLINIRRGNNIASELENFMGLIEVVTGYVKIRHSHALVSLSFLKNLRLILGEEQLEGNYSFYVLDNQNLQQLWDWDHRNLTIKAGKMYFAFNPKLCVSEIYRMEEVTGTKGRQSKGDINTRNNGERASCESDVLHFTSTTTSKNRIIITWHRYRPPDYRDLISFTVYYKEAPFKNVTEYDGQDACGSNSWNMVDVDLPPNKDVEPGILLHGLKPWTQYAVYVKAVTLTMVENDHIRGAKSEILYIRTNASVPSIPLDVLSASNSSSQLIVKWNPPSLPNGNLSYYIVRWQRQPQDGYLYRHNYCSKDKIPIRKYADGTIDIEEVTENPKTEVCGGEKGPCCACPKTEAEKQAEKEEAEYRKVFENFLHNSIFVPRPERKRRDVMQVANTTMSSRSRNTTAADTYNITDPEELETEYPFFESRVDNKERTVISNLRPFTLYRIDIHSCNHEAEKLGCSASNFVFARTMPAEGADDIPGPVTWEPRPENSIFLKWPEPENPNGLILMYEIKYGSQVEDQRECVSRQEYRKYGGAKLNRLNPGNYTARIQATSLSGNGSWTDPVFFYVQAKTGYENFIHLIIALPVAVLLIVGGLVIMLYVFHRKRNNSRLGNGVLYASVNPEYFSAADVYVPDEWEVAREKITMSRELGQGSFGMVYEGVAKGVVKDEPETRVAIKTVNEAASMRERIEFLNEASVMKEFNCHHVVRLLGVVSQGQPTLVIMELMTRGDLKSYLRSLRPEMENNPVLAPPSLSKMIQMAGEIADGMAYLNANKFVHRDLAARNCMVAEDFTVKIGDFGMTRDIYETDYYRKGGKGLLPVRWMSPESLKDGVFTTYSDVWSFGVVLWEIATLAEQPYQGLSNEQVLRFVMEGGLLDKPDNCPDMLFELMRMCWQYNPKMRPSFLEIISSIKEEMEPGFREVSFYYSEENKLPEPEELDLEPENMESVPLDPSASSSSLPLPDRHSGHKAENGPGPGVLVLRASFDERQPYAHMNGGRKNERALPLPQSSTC

In the case of `Cc1cc(N2CCOCC2)cc2[nH]c(-c3c(NC[C@@H](O)c4cccc(Cl)c4)cc[nH]c3=O)nc12` [BMS-536924], the IC50 (Rh41 cells; Rh41 parental cells, 72 h, 3H-thymidine incorporation, Table 1, read-out: IC50 (nM) Rh41) is reported as 31 nM, the IC50 (Rh41-807R cells; Rh41-807R cells, 72 h, 3H-thymidine incorporation, Table 1, read-out: IC50 (nM) Rh41-807R) is reported as over 1000 nM and the IC50 (Rh41-MAB391R cells) is reported as 90.2 ± 2.2 nM.
Compound `CN1CCN(c2ccc3nc(-c4c(N)c5c(F)cccc5[nH]c4=O)[nH]c3c2)CC1` [Dovitinib] has an IC50 (Rh41 cells; [2]) of 6456 ± 60 nM and an IC50 (Rh41-807R cells; [3]) of 722 ± 264 nM.
For `Nc1ccn([C@@H]2O[C@H](CO)[C@@H](O)C2(F)F)c(=O)n1` [Gemcitabine], the IC50 (Rh41 cells; [4]) was 1.1 ± 0.4 nM, the IC50 (Rh41-807R cells; [5]) was 3 nM and the “sensitivity of Rh41-807R compared with the parental line” value (Rh41-807R cells; [6]) was “very similar level of sensitivity as the parental line”.
`C/C(=C\c1csc(C)n1)[C@@H]1C[C@@H]2O[C@]2(C)CCC[C@H](C)[C@H](O)[C@@H](C)C(=O)C(C)(C)[C@@H](O)CC(=O)N1` [Ixabepilone] showed an IC50 (Rh41 cells; [4]) of 4 nM and an IC50 (Rh41-807R cells; [5]) of 3.4 ± 0.4 nM.
For `CO[C@H]1C[C@@H]2CC[C@@H](C)[C@@](O)(O2)C(=O)C(=O)N2CCCC[C@H]2C(=O)O[C@H]([C@H](C)C[C@@H]2CC[C@@H](O)[C@H](OC)C2)CC(=O)[C@H](C)/C=C(\C)[C@@H](O)[C@@H](OC)C(=O)[C@H](C)C[C@H](C)/C=C/C=C/C=C/1C` [Rapamycin], the IC50 (Rh41 cells; [4]) was under 0.32 nM and the IC50 (Rh41-807R cells; [5]) was under 0.32 nM.
`CNC(=O)c1cc(Oc2ccc(NC(=O)Nc3ccc(Cl)c(C(F)(F)F)c3)cc2)ccn1` [Sorafenib] gave an IC50 (Rh41 cells; [2]) of over 2000 nM and an IC50 (Rh41-807R cells; [3]) of 804 ± 210 nM.
`CCN(CC)CCNC(=O)c1c(C)[nH]c(/C=C2\C(=O)Nc3ccc(F)cc32)c1C` [Sunitinib] was tested, and the IC50 (Rh41 cells; [2]) was 1400 ± 634 nM and the IC50 (Rh41-807R cells; [3]) was 1020 ± 321 nM.
`CC(=O)O[C@H]1C(=O)[C@@]2(C)[C@H]([C@H](OC(=O)c3ccccc3)[C@]3(O)C[C@H](OC(=O)[C@H](O)[C@@H](NC(=O)c4ccccc4)c4ccccc4)C(C)=C1C3(C)C)[C@]1(OC(C)=O)CO[C@@H]1C[C@@H]2O` [TAXOL ®, paclitaxel] was tested, and the IC50 (Rh41 cells; [4]) was 2.1 ± 0.4 nM, the IC50 (Rh41-807R cells; [5]) was 1.8 ± 0.3 nM and the “sensitivity of Rh41-807R compared with the parental line” value (Rh41-807R cells; [6]) was “very similar level of sensitivity as the parental line”.
`CC(=O)O[C@@]12CO[C@@H]1C[C@H](O)[C@@]1(C)C(=O)[C@H](O)C3=C(C)[C@@H](OC(=O)[C@H](O)[C@@H](NC(=O)OC(C)(C)C)c4ccccc4)C[C@@](O)([C@@H](OC(=O)c4ccccc4)[C@H]21)C3(C)C` [Taxotere] gave an IC50 (Rh41 cells; [4]) of 0.5 nM and an IC50 (Rh41-807R cells; [5]) of 0.5 nM.
`CC[C@]12C=CCN3CC[C@@]4(c5cc([C@@]6(C(=O)OC)C[C@@H]7C[C@@H](C(C)(F)F)CN(Cc8c6[nH]c6ccccc86)C7)c(OC)cc5N(C)[C@H]4[C@@](O)(C(=O)OC)[C@@H]1OC(C)=O)[C@@H]32` [Vinflunine] showed an IC50 (Rh41 cells; Homo sapiens, Rh41, read-out: Rh41 IC50 (nM)) of 28 ± 2.8 nM and an IC50 (Rh41-807R cells; Homo sapiens, read-out: Rh41-807R IC50 (nM)) of 21 ± 3 nM.
With “MAB391 (R&D Systems), IGF-1R neutralizing antibody” the IC50 (nM), growth inhibition of Rh41-807R cells, 3H-thymidine incorporation, 72 h [1] was over 2000 nM, the IC50 (nM), growth inhibition of Rh41-MAB391R cells, 3H-thymidine incorporation, 72 h [1] was over 2000 nM and the IC50 (nM), growth inhibition of Rh41 parental cells, 3H-thymidine incorporation, 72 h [1] was 0.1 nM.
